Assay results published in paper PMC12818745 (ACS Chemical Neuroscience, 2025).

Target: T1, Tau protein aggregation (Homo sapiens, UniProt P10636)
T1 construct: For the cloning and overexpression of full-length tau protein; expressed in transfected cells; host or cells: E. coli BL21 (DE3) carrying pTARA and pRKT42
Assay: Thioflavin S assay of tau protein aggregation in E. coli cells overexpressing tau
Format: cell-based, Escherichia coli
Settings: read-out: Tau inhibition %
Description: The antiaggregating profiles of both series A and B were evaluated using a fluorescence Thioflavin S (ThS) assay in cellulo, which monitors ThS fluorescence in the presence of β-sheet-rich structures, such as Aβ and tau protein aggregates. This method, based on recombinant Escherichia coli (E. coli) bacteria overexpressing insoluble aggregates, offers a simple and cost-effective approach to model aggregation processes in mammalian systems and has been validated for use in drug discovery studies. , Compounds were tested at a screening concentration of 50 μM for their ability to inhibit Aβ42 aggregation. The results, summarized in Table , reveal distinct antiaggregating profiles between series A and B, which are once again influenced by their structural differences.
This strategic extension aimed to validate the chromeno[3,4-b]-xanthone scaffold for related aggregation targets, considering the structural and pathological similarities between Aβ and tau aggregation processes. […]. […] Nevertheless, it is important to interpret the results cautiously, as the inability of certain compounds to cross bacterial membranes, may have underestimated their true inhibitory activity in the assay.
For the cloning and overexpression of full-length tau protein, E. coli BL21 (DE3) competent cells were transformed first with the pTARA vector containing the RNA polymerase gene of phage T7 (T7RP), controlled by the PBAD promoter. Subsequently, E. coli BL21(DE3) competent cells containing pTARA were transformed with the pRKT42 vector encoding four repeats of tau protein in two inserts. Similar to the procedure for Aβ42, overnight cultures were prepared by inoculating colonies of BL21 (DE3) cells bearing the plasmids in M9 medium supplemented with 0.5% glucose, 50 μg mL^–1 ampicillin, and 12.5 μg mL^–1 chloramphenicol at 37 °C. Upon induction, a 1:500 dilution of the overnight culture was added to fresh M9 minimal medium containing 0.5% glucose, 50 μg mL^–1 ampicillin, 12.5 μg mL^–1 chloramphenicol, and 25 μM ThS. The subsequent steps mirrored those for the Aβ assay, including the addition of the compound to be tested dissolved in DMSO and 10 μL of 25% arabinose or, alternatively, 10 μL of water for the noninduced controls, with a final compound concentration of […]. Negative controls for tau overexpression utilized free DMSO.
ThS (T1892) and all other chemical reagents were purchased from Sigma (St. Louis, MO). Stock solutions of ThS (250 μM) were prepared using doubly distilled water purified via a Milli-Q system (Millipore). For the fluorescence assay, ThS spectra were recorded utilizing an AmincoBowman series 2 luminescence spectrophotometer (Aminco-Bowman AB2, SLM Aminco, Rochester, NY) within the range of 460 to 600 nm at a temperature of 25 °C. The excitation wavelength employed was 445 nm, with slit widths set at 4 nm. The emission at 485 nm, corresponding to the ThS peak observed in the presence of amyloids, was recorded. To standardize ThS fluorescence relative to bacterial concentration in both in vitro and cell-based assays, the OD600 was determined using a Shimadzu UV-2401 PC UV–vis spectrophotometer. Fluorescence normalization was executed by setting the ThS fluorescence of bacterial cells expressing the peptide or protein in the absence of the drug as 100%, while that of bacterial cells not expressing the peptide or protein was established as 0%.

T1 sequence (P10636 other isoform, or with tags, fused parts or gaps): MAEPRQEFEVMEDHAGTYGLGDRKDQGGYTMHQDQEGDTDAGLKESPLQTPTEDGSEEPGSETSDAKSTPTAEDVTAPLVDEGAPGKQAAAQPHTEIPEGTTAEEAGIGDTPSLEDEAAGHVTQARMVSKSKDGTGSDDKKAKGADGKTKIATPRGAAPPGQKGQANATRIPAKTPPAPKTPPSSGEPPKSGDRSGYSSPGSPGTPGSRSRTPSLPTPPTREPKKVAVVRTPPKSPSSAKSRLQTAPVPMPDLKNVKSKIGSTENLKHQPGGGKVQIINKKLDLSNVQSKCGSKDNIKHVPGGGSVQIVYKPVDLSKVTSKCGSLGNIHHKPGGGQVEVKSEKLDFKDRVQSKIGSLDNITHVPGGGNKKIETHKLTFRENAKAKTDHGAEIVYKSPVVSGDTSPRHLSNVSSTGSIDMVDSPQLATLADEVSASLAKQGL

COc1ccc2c(=O)c3cc4c(cc3oc2c1)-c1cc(Cl)ccc1OC4 [Compound 11r, 2-Chloro-11-methoxy-6H,8H-chromeno[3,4-b]xanthen-8-one]
inhibition at 50 µM: 61.3 ± 5.9%
